Assay type in all cases: in vivo, male Sprague-Dawley I.O.P.S. rats
For data set [1], the system named is granuloma. Kind of data set: Local anti-inflammatory activity: inhibition of granuloma formation around implanted cotton wool pellet. The settings on record: for R 1 (relative local anti-inflammatory activity compared with betamethasone 17,21-dipropionate): D.P.B. = 1, calculated from ED50; for R 1 (relative local anti-inflammatory activity compared with betamethasone 17,21-dipropionate) / ED50 (local anti-inflammatory activity, 50% inhibition in granuloma weight): Table 1; for activity compared with betamethasone 17,21-dipropionate (times greater): local anti-inflammatory test; for ED50 (local anti-inflammatory activity, 50% inhibition in granuloma weight): rat, cotton pellet granuloma, six days after implantation. The method, then: A. Winter and C. C. Porter (J. Am. Pharm. Ass. 1957, 46, 9, pages 515-519).
(§1) The principle of the test consists in implanting a pellet of cotton wool in the dorsal subcutaneous tissue of the animal. The corticoids to be studied are added to the pellet so that the following tests can be carried out:
(1) Determination of the local anti-inflammatory activity
The presence of products within the pellet may inhibit or prevent the formation of a granuloma.
(§2) The animals are divided into random homogeneous groups of 10 male Sprague-Dawley I.O.P.S. rats with a body weight of between 100 and 120 grams.
(§3) The pellets to be implanted weigh from 35 to 40 mg and are prepared from balls of dental cotton wool. Before being inserted, each pellet is weighed and impregnated with the precise quantity of the product which is to be studied, dissolved in 0.2 ml of chloroform. The chloroform is eliminated by evaporation over a period of 24 hours at ambient temperature.
(§4) Before implantation, each pellet is impregnated with a solution of antibiotics:
Streptomycin 0.1 gram/ml.
(§5) The animals are anaesthetised with ether, and then two pellets are implanted in each animal in the dorsal subcutaneous tissue, on each side of the median line:
(§6) on the left, the pellet containing the product to be tested (treated animal) or the carrier only (control animal);
(§7) on the right, the pellet containing the carrier only.
(§8) The animals are given normal food and are sacrificed six days after the pellets have been implanted.
(1) Local anti-inflammatory activity
The pellets surrounded by granulomatous tissue are carefully removed and weighed, and then dried until a constant weight is obtained.
The relative activity of the test products compared with betamethasone 17,21-dipropionate is calculated according to the following equation: [formula]

Data set [2] is described as follows: Systemic activity after local administration: effect on weight gain. The settings on record: rat, in vivo, 8640 min. The method, then:
(§9) The pharmacological activity of the products described in the invention was tested in the rat using a technique similar to that described by C. A. Winter and C. C. Porter (J. Am. Pharm. Ass. 1957, 46, 9, pages 515-519).
as §1
(§10) (2) Determination of the systemic activity of the products after local administration
(§11) Local application of the corticoids may result, inter alia, in:
(b) Disruption of the protein metabolism which causes tissue fusion, resulting in an inhibition of the weight increase in animals.
as §2, §3, §4, §5, §6, §7, §8
(b) Effect on weight gain
The weight gain over six days is determined on the animals before they are sacrificed.
The activity of the products was expressed as the percentage inhibition in the weight gain of the treated animals compared with the weight gain in the control animals.
The ED 30 which corresponds to a 30% inhibition in the weight gain was determined.

Data set [3] has as its system thymus. Nature of the data set: Systemic activity after local administration: effect on the weight of the thymus. The settings on record: rat, in vivo, 8640 min. The procedure:
as §9, §1, §10, §11
(a) a reduction in the defence systems of the organism, the most notable sign of which is a reduction in the weight of the animals' thymuses.
as §2, §3, §4, §5, §6, §7, §8
(2) Determination of the systemic effect
The thymuses are taken from the same animals and weighed. Using the same type of calculation, an ED 50 is determined, which corresponds to the dosage of product resulting in a 50% decrease in weight of the thymuses, compared with the control animals.

This is an account of results in patent publication US4427671A, “Steroids esterified in position 17 and thioesterified in position 21, a process for preparing them and their use as medicaments” (priority 1981, dated 1984).

Turning to `CCC(=O)OC1(C(=O)CSC(C)=O)C(C)CC2C3CCC4=CC(=O)C=CC4(C)C3(F)C(O)CC21C` (stereo not drawn) [Ex. 10, 9α-fluoro-11β-hydroxy-16β-methyl-pregna-1,4-diene-3,20-dione (or betamethasone) 17-propionate, 21-thioacetate], in data set [1], the “R 1 (relative local anti-inflammatory activity compared with betamethasone 17,21-dipropionate)” value was 124; the “activity compared with betamethasone 17,21-dipropionate (times greater)” value is reported as “more than 100 times”; the “ED50 (local anti-inflammatory activity, 50% inhibition in granuloma weight)” value worked out at 0.013 mg/pellet. Further, in data set [2], the “ED30 (30% inhibition in the weight gain)” value is above 1 mg/pellet and the “R 3 (relative activity on weight gain compared with D.P.B.)” value is recorded as below 0.8. In data set [3], the “ED50 (50% decrease in weight of the thymuses)” value was 0.25 mg/pellet and the “R 2 (relative effect on thymus weight compared with D.P.B.)” value was 3.40.
Turning to `CCC(=O)OC1(C(=O)CSC(=O)CC)C(C)CC2C3CCC4=CC(=O)C=CC4(C)C3(F)C(O)CC21C` (stereo not drawn) [Ex. 11, 9α-fluoro-11β-hydroxy-16β-methyl-pregna-1,4-diene-3,20-dione (or betamethasone) 17-propionate, 21-thiopropionate], in data set [1], the “R 1 (relative local anti-inflammatory activity compared with betamethasone 17,21-dipropionate)” value was 134; the “activity compared with betamethasone 17,21-dipropionate (times greater)” value is recorded as “more than 100 times”; the “ED50 (local anti-inflammatory activity, 50% inhibition in granuloma weight)” value worked out at 0.012 mg/pellet. Also, in data set [2], the “ED30 (30% inhibition in the weight gain)” value is 0.8 mg/pellet and the “R 3 (relative activity on weight gain compared with D.P.B.)” value was determined as 1. Also, in data set [3], the “ED50 (50% decrease in weight of the thymuses)” value amounted to 0.46 mg/pellet and the “R 2 (relative effect on thymus weight compared with D.P.B.)” value was 1.9.
As for `CCCCC(=O)OC1(C(=O)CSC(=O)CCCC)C(C)CC2C3CCC4=CC(=O)C=CC4(C)C3(F)C(O)CC21C` (stereo not drawn) [Ex. 12, 9α-fluoro-11β-hydroxy-16β-methyl-pregna-1,4-diene-3,20-dione (or betamethasone) 17-valerate, 21-thiovalerate], in data set [1], the “R 1 (relative local anti-inflammatory activity compared with betamethasone 17,21-dipropionate)” value is above 129; the “activity compared with betamethasone 17,21-dipropionate (times greater)” value was “more than 100 times”; the “ED50 (local anti-inflammatory activity, 50% inhibition in granuloma weight)” value is below 0.0125 mg/pellet. Also, in data set [2], the “ED30 (30% inhibition in the weight gain)” value is above 0.8 mg/pellet and the “R 3 (relative activity on weight gain compared with D.P.B.)” value is on record as below 1. Further, in data set [3], the “ED50 (50% decrease in weight of the thymuses)” value is reported as above 0.8 mg/pellet and the “R 2 (relative effect on thymus weight compared with D.P.B.)” value was below 1.
On to `CCC(=O)OC1(C(=O)CSC(=O)CC)C(C)CC2C3CCC4=CC(=O)C=CC4(C)C3(Cl)C(O)CC21C` (stereo not drawn) [Ex. 15, 9α-chloro-11β-hydroxy-16β-methyl-pregna-1,4-diene-3,20-dione (or beclomethasone) 17-propionate, 21-thiopropionate], for which, in data set [1], the “R 1 (relative local anti-inflammatory activity compared with betamethasone 17,21-dipropionate)” value was above 322; the “activity compared with betamethasone 17,21-dipropionate (times greater)” value is given as “more than 100 times”; the “ED50 (local anti-inflammatory activity, 50% inhibition in granuloma weight)” value is reported as below 0.005 mg/pellet. In addition, in data set [2], the “ED30 (30% inhibition in the weight gain)” value turned out to be 0.56 mg/pellet and the “R 3 (relative activity on weight gain compared with D.P.B.)” value is listed as 1.42. In data set [3], the “ED50 (50% decrease in weight of the thymuses)” value is listed as 2.4 mg/pellet and the “R 2 (relative effect on thymus weight compared with D.P.B.)” value is given as 0.36.
As for `CC(=O)OC1(C(=O)CSC(=O)CC(C)(C)C)C(C)CC2C3CCC4=CC(=O)C=CC4(C)C3(F)C(O)CC21C` (stereo not drawn) [Ex. 14, 9α-fluoro-11β-hydroxy-16α-methyl-pregna-1,4-diene-3,20-dione (or dexamethasone) 17-acetate, 21-thio-tert.butyl-acetate], in data set [1], the “R 1 (relative local anti-inflammatory activity compared with betamethasone 17,21-dipropionate)” value is recorded as 537; the “activity compared with betamethasone 17,21-dipropionate (times greater)” value was “more than 100 times”; the “ED50 (local anti-inflammatory activity, 50% inhibition in granuloma weight)” value worked out at 0.003 mg/pellet. In data set [2], the “ED30 (30% inhibition in the weight gain)” value is listed as 0.015 mg/pellet and the “R 3 (relative activity on weight gain compared with D.P.B.)” value is given as 53. For the same molecule, in data set [3], the “ED50 (50% decrease in weight of the thymuses)” value worked out at 0.33 mg/pellet and the “R 2 (relative effect on thymus weight compared with D.P.B.)” value came to 2.6.
Turning to `CCCCC(=O)O[C@]1(C(=O)CSC(=O)CCCC)CC[C@H]2[C@@H]3C[C@H](C)C4=CC(=O)C=C[C@]4(C)[C@H]3[C@@H](O)C[C@@]21C` [Ex. 6, 11β-hydroxy-6α-methyl-pregna-1,4-diene-3,20-dione (or 6α-methylprednisolone) 17-valerate, 21-thiovalerate], in data set [1], the “R 1 (relative local anti-inflammatory activity compared with betamethasone 17,21-dipropionate)” value was 8.9 and the “ED50 (local anti-inflammatory activity, 50% inhibition in granuloma weight)” value is reported as 0.180 mg/pellet. For the same molecule, in data set [2], the “ED30 (30% inhibition in the weight gain)” value is listed as above 1 mg/pellet and the “R 3 (relative activity on weight gain compared with D.P.B.)” value was below 0.8. In addition, in data set [3], the “ED50 (50% decrease in weight of the thymuses)” value is given as above 1 mg/pellet and the “R 2 (relative effect on thymus weight compared with D.P.B.)” value is recorded as below 0.86.
As for `C=C1C[C@H]2[C@@H]3CCC4=CC(=O)C=C[C@]4(C)[C@H]3[C@@H](O)C[C@]2(C)[C@@]1(OC(=O)CC)C(=O)CSC(=O)CC` [Ex. 19, 11β-hydroxy-16-methylene-pregna-1,4-diene-3,20 dione (or prednylidene)17-propionate, 21-thiopropionate], in data set [1], the “R 1 (relative local anti-inflammatory activity compared with betamethasone 17,21-dipropionate)” value is listed as 0.89 and the “ED50 (local anti-inflammatory activity, 50% inhibition in granuloma weight)” value was 1.800 mg/pellet. Besides, in data set [2], the “ED30 (30% inhibition in the weight gain)” value came to 0.015 mg/pellet and the “R 3 (relative activity on weight gain compared with D.P.B.)” value was 53. Besides, in data set [3], the “ED50 (50% decrease in weight of the thymuses)” value was 7 mg/pellet and the “R 2 (relative effect on thymus weight compared with D.P.B.)” value is listed as 0.12.
Consider `CCCCC(=O)OC1(C(=O)CSC(C)=O)C(C)CC2C3CCC4=CC(=O)C=CC4(C)C3(F)C(O)CC21C` (stereo not drawn) [Ex. 13, 9α-fluoro-11β-hydroxy-16β-methyl-pregna-1,4-diene-3,20-dione (or betamethasone) 17-valerate, 21-thioacetate], for which, in data set [1], the “R 1 (relative local anti-inflammatory activity compared with betamethasone 17,21-dipropionate)” value was 32.2 and the “ED50 (local anti-inflammatory activity, 50% inhibition in granuloma weight)” value came to 0.050 mg/pellet. In data set [2], the “ED30 (30% inhibition in the weight gain)” value is reported as 0.65 mg/pellet and the “R 3 (relative activity on weight gain compared with D.P.B.)” value is on record as 1.23. For the same molecule, in data set [3], the “ED50 (50% decrease in weight of the thymuses)” value was found to be 0.8 mg/pellet and the “R 2 (relative effect on thymus weight compared with D.P.B.)” value is on record as 1.1.
Consider `CCCCC(=O)OC1(C(=O)CSC(=O)CCCC)C(C)CC2C3CCC4=CC(=O)C=CC4(C)C3(Cl)C(O)CC21C` (stereo not drawn) [Ex. 18, 9α-chloro-11β-hydroxy-16β-methyl-pregna-1,4-diene-3,20-dione (or beclomethasone) 17-valerate, 21-thiovalerate], for which, in data set [1], the “R 1 (relative local anti-inflammatory activity compared with betamethasone 17,21-dipropionate)” value is reported as 16.8 and the “ED50 (local anti-inflammatory activity, 50% inhibition in granuloma weight)” value is on record as 0.096 mg/pellet. Besides, in data set [2], the “ED30 (30% inhibition in the weight gain)” value is above 1.0 mg/pellet and the “R 3 (relative activity on weight gain compared with D.P.B.)” value is below 0.8. In data set [3], the “ED50 (50% decrease in weight of the thymuses)” value was above 1 mg/pellet and the “R 2 (relative effect on thymus weight compared with D.P.B.)” value is recorded as below 0.86.
Consider `CCCCC(=O)O[C@]1(C(=O)CSC(C)=O)CC[C@H]2[C@@H]3C[C@H](C)C4=CC(=O)C=C[C@]4(C)[C@H]3[C@@H](O)C[C@@]21C` [Ex. 7, 11β-hydroxy-6α-methyl-pregna-1,4-diene-3,20-dione (or 6α-methylprednisolone) 17-valerate, 21-thioacetate], for which, in data set [1], the “R 1 (relative local anti-inflammatory activity compared with betamethasone 17,21-dipropionate)” value is listed as 2.0 and the “ED50 (local anti-inflammatory activity, 50% inhibition in granuloma weight)” value turned out to be 0.800 mg/pellet. For the same molecule, in data set [2], the “ED30 (30% inhibition in the weight gain)” value is recorded as above 1 mg/pellet and the “R 3 (relative activity on weight gain compared with D.P.B.)” value is below 0.8. In addition, in data set [3], the “ED50 (50% decrease in weight of the thymuses)” value is listed as above 1 mg/pellet and the “R 2 (relative effect on thymus weight compared with D.P.B.)” value was below 0.86.
